According to paper PMC8745332, “Synthesis, Molecular Docking and Biological Characterization of Pyrazine Linked 2-Aminobenzamides as New Class I Selective Histone Deacetylase (HDAC) Inhibitors with Anti-Leukemic Activity” (International Journal of Molecular Sciences, 2021):

How the values were obtained:
[1] = tested on: HEL cells; test: Cytotoxicity/apoptosis in HEL cells expressing JAK2V617F, annexin V-FITC/PI flow cytometry; type: cell-based, human
Procedure: (B) Cells were stained with annexin V-FITC/PI and analyzed via flow cytometry. […] IC50 values were determined for 19f. Results represent three independent experiments.
This erythroleukemia cell model carries a mutation in Janus kinase-2 (JAK2V617F) and HDACi are considered as therapeutic options to control the transformation of this disease into AML [53].
All leukemic cells were kept in RPMI-1640 medium supplemented with 10% FBS and 1%penicillin/streptomycin (Sigma-Aldrich, Taufkirchen, Germany) under standard culture conditions at 37 °C and a 5% CO2 humidified atmosphere. Cells were authenticated as mentioned by us.

[2] = biological target: T1, human HDAC8 (Homo sapiens, UniProt Q9BY41); test: HDAC8 homogenous fluorescence assay with ZMAL substrate; type: biochemical; details: read-out: HDAC8 (% Inhib.)
T1 construct: made in house
T1 sequence (Q9BY41 1-377): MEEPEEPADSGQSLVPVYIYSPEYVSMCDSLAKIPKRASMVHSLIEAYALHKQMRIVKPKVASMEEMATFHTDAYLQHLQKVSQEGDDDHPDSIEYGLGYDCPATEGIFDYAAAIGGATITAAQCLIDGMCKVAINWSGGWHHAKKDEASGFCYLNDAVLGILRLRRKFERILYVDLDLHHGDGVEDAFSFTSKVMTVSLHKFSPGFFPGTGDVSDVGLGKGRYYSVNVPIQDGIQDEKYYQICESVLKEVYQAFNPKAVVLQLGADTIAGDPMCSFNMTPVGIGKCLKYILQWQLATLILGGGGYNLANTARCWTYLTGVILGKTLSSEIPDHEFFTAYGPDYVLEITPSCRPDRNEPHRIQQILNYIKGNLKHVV
Procedure: Recombinant human HDAC1, HDAC2, and HDAC3/NCOR1 were purchased from ENZO Life Sciences AG (Lausen, CH). Recombinant human HDAC 4, HDAC5, HDAC7, HDAC9 and HDAC11 were produced by Barinka lab in Prague, as described before. Recombinant human HDAC8 was produced by Romier et al. (IGBMC, Univ. Strasbourg), as described in [55].
Fluorescence intensity was measured at an excitation wavelength of 390 nm and an emission wavelength of 460 nm in a microtiter plate reader (BMG Polarstar).

**Q.** What does the source list for Nc1ccccc1NC(=O)c1cnc(N2CCN(Cc3c[nH]c4ccccc34)CC2)cn1 [19f, 5-(4-((1H-indol-3-yl)methyl)piperazin-1-yl)-N-(2-aminophenyl)pyrazine-2-carboxamide]?
**A.** apoptosis in HEL cell cultures ([1]; 0.5 µM, 48 h): 26%; IC50 ([1]; Homo sapiens, 0.25 µM to 5 µM, 24 h, read-out: IC50 for toxic effects on HEL cells): 925 nM; inhibition at 1 µM [2]: 0%
